Source: patent US6730661B1, “Nutritional composition which contain non-digestible polysaccharides and use thereof to reduce transport through tight junctions” (N. V. Nutricia, priority 1999, dated 2004)

Assays:
[1] = test system: duodenum biopsies of a child suffering from microvillus inclusion disease (MVID); experiment: Permeability to HRP of duodenal suction biopsies of a microvillus inclusion disease patient in Ussing chamber; design: species or system human; settings: after adding 4.2 g/l to luminal compartment
Source text: Suction biopsies were taken from the duodenum of a child suffering from microvillus inclusion disease (MVID).

[2] = test system: guinea pig intestinal epithelium; experiment: HRP flow over guinea pig intestinal epithelium in Ussing chamber, tight junctions opened by caprate; settings: in vitro, FIG. 2
Procedure: Use was made of a model set-up for determination of the effect of the polysaccharides used.
A test animal, such as a rat or guinea pig, was brought under narcosis. The stomach wall was then opened and a piece of the ileum tied off. The intestinal tissue was removed and stripped of layers of muscle. The preparation thus obtained was then stretched between two compartments through which oxygenated solutions flowed (FIG. 1). The preparation was treated either with buffer (control or blank) or caprate in buffer in order to open the tight junctions (100% permeability) or with the combination of caprate and a certain concentration of polysaccharide in buffer. As a measure of the permeability the transport of HRP (horseradish peroxidase) over the preparation was determined in accordance with known methods.
The in vitro effect of dextran (70 kD) on the increased HRP flow caused by caprate in a guinea pig intestinal epithelium is shown in FIG. 2.

pig intestine = experiment: in situ ischaemia reperfusion model in pigs, HRP flow in jejunum segments; assay type: in vivo; settings: 5.6 g/l in lumen during ischaemia, pig under full narcosis, caudal jejunum, FIG. 5
Procedure: The figure relates to experiments with a pig under full narcosis, in which segments of the caudal section of the jejunum were taken. The effect of 5.6 g/l dextran (70 kD)(D) in the in situ ischaemia reperfusion model in pigs as a function of the duration of ischaemia was determined in comparison with control (C) where no dextran was introduced into the lumen during ischaemia.

dextran [dextran (70 kD)]
HRP in the paracellular spaces or tight junctions by electron microscopy [1]: No further HRP could be detected | effect on the increased HRP flow caused by caprate [2]: inhibition of the effects of caprate | HRP flow in the pig intestine increased by ischaemia, compared with control (pig intestine): significant fall
